Results from US8846694B2, “Pyrrolidone derivatives for use as MetAP-2 inhibitors” (Merck Patent GmbH, priority 2008, dated 2014).

Target: MetAP-2 (Homo sapiens, UniProt P50579)
Assay: MetAP-2 activity measurement (coupled enzymatic reactions, substrate Met-Arg-Ser, photometric at 450 nm)
Type: biochemical
Conditions: read-out: IC50 enzyme (Inhibition of MetAP-2)
How it was run: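 Human MetAP-2 cleaves Met-Arg-Ser; the freed methionine is oxidized by L-amino acid oxidase, and the resulting H2O2 drives peroxidase oxidation of dianisidine, read continuously at 450 nm. Activity is taken as the slope in the visually linear region.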

MetAP-2, sequence (P50579 whole entry, species assumed): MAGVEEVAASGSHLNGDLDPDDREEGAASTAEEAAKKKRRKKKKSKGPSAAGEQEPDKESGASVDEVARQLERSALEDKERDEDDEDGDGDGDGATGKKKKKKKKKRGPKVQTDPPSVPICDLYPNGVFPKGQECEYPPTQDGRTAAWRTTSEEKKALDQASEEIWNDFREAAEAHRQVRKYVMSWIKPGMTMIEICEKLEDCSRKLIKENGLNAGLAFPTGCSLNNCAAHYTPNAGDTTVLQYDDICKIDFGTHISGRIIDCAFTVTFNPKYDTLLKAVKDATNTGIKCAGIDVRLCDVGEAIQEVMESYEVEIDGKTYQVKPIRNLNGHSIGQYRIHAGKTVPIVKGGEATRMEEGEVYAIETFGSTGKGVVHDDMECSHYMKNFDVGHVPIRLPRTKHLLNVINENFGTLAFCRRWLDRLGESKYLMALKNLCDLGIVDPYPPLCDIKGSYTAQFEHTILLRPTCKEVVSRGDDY

| Compound | IC50 |
| --- | --- |
| OC[C@H]1CCCN1Cc1ccc(OC[C@H]2CCCN2c2ncnc3[nH]cnc23)c2ccccc12 [A114, ((R)-1-{4-[(R)-1-(9H-Purin-6-yl)pyrrolidin-2-yl-methoxy]naphthalen-1-ylmethyl}pyrrolidin-2-yl)-methanol] | 10 to 1000 nM |
| CC(=O)N(Cc1ccn(C)n1)Cc1ccc(OC[C@H]2CCCN2c2ncnc3[nH]cnc23)c2ccccc12 [A99, N-(1-Methyl-1H-pyrazol-3-ylmethyl)-N-{4-[(R)-1-(9H-purin-6-yl)pyrrolidin-2-ylmethoxy]-naphthalen-1-ylmethyl}acetamide] | 10 to 1000 nM |
| COc1cc2c(OC[C@H]3CCCN3c3ncnc4[nH]cnc34)ncnc2cc1OCc1ccccc1 [A45, 7-Benzyloxy-6-methoxy-4-[(R)-1-(9H-purin-6-yl)-pyrrolidin-2-ylmethoxy]quinazoline] | > 10000 nM |
| O=C(O)c1cc(OC[C@H]2CCCN2c2ncnc3[nH]cnc23)c2cc(F)ccc2n1 [A141, 6-Fluoro-4-[(R)-1-(9H-purin-6-yl)pyrrolidin-2-yl-methoxy]quinoline-2-carboxylic acid] | 10 to 1000 nM |
| Nn1cnc2c(N3CCC[C@@H]3COc3cccc4ccccc34)ncnc21 [A25, 6-[(R)-2-(Naphthalen-1-yloxymethyl)pyrrolidin-1-yl]purin-9-ylamine] | 1000 to 10000 nM |
| O=C(NCCO)c1cc(OC[C@H]2CCCN2c2ncnc3[nH]cnc23)c2ccccc2n1 [A84, N-(2-Hydroxyethyl)-4-[(R)-1-(9H-purin-6-yl)-pyrrolidin-2-ylmethoxy]quinoline-2-carboxamide] | 10 to 1000 nM |
| Cc1ccc2cccc(OC[C@H]3CCCN3c3ncnc4[nH]cnc34)c2n1 [A49, 2-Methyl-8-[(R)-1-(9H-purin-6-yl)pyrrolidin-2-yl-methoxy]quinoline] | 1000 to 10000 nM |
| O=C(O)CC[C@H](NC(=O)O)C(=O)Nc1ccc2cccc(OC[C@H]3CCCN3c3ncnc4[nH]cnc34)c2c1 [A183, (S)-4-Carboxyamino-4-{8-[(R)-1-(9H-purin-6-yl)-pyrrolidin-2-ylmethoxy]naphthalen-2-yl-carbamoyl}butyric acid] | > 10000 nM |
| O=C(O)CCCCOc1ccc2cccc(OC[C@H]3CCCN3c3ncnc4[nH]cnc34)c2c1 [A196, 5-{8-[(R)-1-(9H-Purin-6-yl)pyrrolidin-2-yl-methoxy]naphthalen-2-yloxy}pentanoic acid] | > 10000 nM |
| CCOC(=O)CNC(=O)N1CCN(c2ccc3cccc(OC[C@H]4CCCN4c4ncnc5[nH]cnc45)c3c2)CC1 [A157, Ethyl [(4-{8-[(R)-1-(9H-purin-6-yl)pyrrolidin-2-yl-methoxy]naphthalen-2-yl}piperazine-1-carbonyl)amino]acetate] | 1000 to 10000 nM |
| c1ccc2c(OC[C@H]3CCCN3c3ncnc4[nH]cnc34)nccc2c1 [A109, 1-[(R)-1-(9H-Purin-6-yl)pyrrolidin-2-yl-methoxy]isoquinoline] | 10 to 1000 nM |
| c1ccc(CN2CCN(c3ccc4cccc(OC[C@H]5CCCN5c5ncnc6[nH]cnc56)c4c3)CC2)cc1 [A106, 6-{(R)-2-[7-(4-Benzylpiperazin-1-yl)naphthalen-1-yloxymethyl]pyrrolidin-1-yI}-9H-purine] | > 10000 nM |
| O=C1CCc2cccc(OC[C@H]3CCCN3c3ncnc4[nH]cnc34)c2C1 [A121, 8-[(R)-1-(9H-Purin-6-yl)pyrrolidin-2-ylmethoxy]-3,4-dihydro-1H-naphthalen-2-one] | 1000 to 10000 nM |
| C(=C\[C@H]1CCCN1c1ncnc2[nH]cnc12)/c1cccc2ccccc12 [A12, 6-[(R)-2((E)-2-naphthalen-1-ylvinyl)pyrrolidin-1-yl]-9H-purine] | 1000 to 10000 nM |
| O=c1c2ccccc2ccn1C[C@H]1CCCN1c1ncnc2[nH]cnc12 [A59, 2-[(R)-1-(9H-Purin-6-yl)pyrrolidin-2-ylmethyl]-2H-isoquinolin-1-one] | > 10000 nM |
| c1ccc2c(OC[C@H]3CCCN3c3ncnc4[nH]cnc34)c(CN3CCCCC3)ccc2c1 [A61, 6-[(R)-2-(2-Piperidin-1-ylmethylnaphthalen-1-yloxymethyl)pyrroiidin-1-yl]-9H-purine] | > 10000 nM |
| c1cc(OC[C@H]2CCCN2c2ncnc3[nH]cnc23)c2ncoc2c1 [A73, 6-[(R)-2-(Benzoxazol-4-yloxymethyl)pyrrolidin-1-yl]-9H-purine] | 1000 to 10000 nM |
| CNC(=O)/C=C1/CCc2c(OC[C@H]3CCCN3c3ncnc4[nH]cnc34)cccc2C1=O [A67, N-Methyl-2-[1-oxo-5-[(R)-1-(9H-purin-6-yl)-pyrrolidin-2-ylmethoxy]-3,4-dihydro-1H-naphthalen-(2Z)-ylidene]acetamide] | 10 to 1000 nM |
| CCNC(=O)Nc1ccc2cccc(OC[C@H]3CCCN3c3ncnc4[nH]cnc34)c2c1 [A154, 1-Ethyl-3-{8-[(R)-1-(9H-purin-6-yi)pyrrolidin-2-yl-methoxy]naphthalen-2-yl}urea] | 1000 to 10000 nM |
| Clc1cccc(/C=C/[C@H]2CCCN2c2ncnc3[nH]cnc23)c1 [A11, 6-{(R)-2-[(E)-2-(3-chlorophenyl)vinyl]pyrrolidin-1-yl}-9H-purine] | 1000 to 10000 nM |
| CC(C)(C)OC(=O)N[C@H](CC(N)=O)C(=O)Nc1ccc2cccc(OC[C@H]3CCCN3c3ncnc4[nH]cnc34)c2c1 [A162, tert-Butyl ((R)-2-carbamoyl-1-{8-[(R)-1-(9H-purin-6-yl)pyrrolidin-2-ylmethoxy]naphthalen-2-ylcarbamoyl}ethyl)carbamate] | 1000 to 10000 nM |

Now from value to compound:

| IC50 | Compound |
| --- | --- |
| 1000 to 10000 nM | NC(=O)CCC(=O)N1CCc2cccc(OC[C@H]3CCCN3c3ncnc4[nH]cnc34)c2C1 [A202, 4-Oxo-4-{8-[(R)-1-(9H-purin-6-yl)pyrrolidin-2-yl-methoxy]-3,4-dihydro-1H-isoquinolin-2-yl}-butyramide] |
| 10 to 1000 nM | CCNC(=O)CC1CCc2c(OC[C@H]3CCCN3c3ncnc4[nH]cnc34)cccc2C1=O (stereo partly drawn) [A176, N-Ethyl-2-{1-oxo-5-[(R)-1-(9H-purin-6-yl)-pyrrolidin-2-ylmethoxy]-1,2,3,4-tetrahydro-naphthalen-2-yl}acetamide] |
| 10 to 1000 nM | c1cc(OC[C@H]2CCCN2c2ncnc3[nH]cnc23)c2cc(N3CCOCC3)ccc2c1 [A146, 6-[(R)-2-(7-Morpholin-4-ylnaphthalen-1-yl-oxymethyl)pyrrolidin-1-yl]-9H-purine] |
| 10 to 1000 nM | COCCOc1cccc2c(OC[C@H]3CCCN3c3ncnc4[nH]cnc34)cccc12 [A58, 6-{(R)-2-[5-(2-Methoxyethoxy)naphthalen-1-yl-oxymethyl]pyrrolidin-1-yl}-9H-purine] |
| 10 to 1000 nM | c1ccc2c(OC[C@H]3CCCN3c3ncnc4[nH]cnc34)ccnc2c1 [A93, 4-[(R)-1-(9H-Purin-6-yl)pyrrolidin-2-yl-methoxy]quinoline] |
| 10 to 1000 nM | CN(C)C(=O)C[C@@H]1CCc2c(OC[C@H]3CCCN3c3ncnc4[nH]cnc34)cccc2C1=O [A174, N,N-Dimethyl-2-{(S)-1-oxo-5-[(R)-1-(9H-purin-6-yl)pyrrolidin-2-ylmethoxy]-1,2,3,4-tetrahydro-naphthalen-2-yl}acetamide] |
| 10 to 1000 nM | O=CN(CCN1CCCCC1)Cc1ccc(OC[C@H]2CCCN2c2ncnc3[nH]cnc23)c2ccccc12 [A101, N-(2-Piperidin-1-ylethyl)-N-{4-[(R)-1-(9H-purin-6-yl)pyrrolidin-2-ylmethoxy]naphthalen-1-yl-methyl}formamide] |
| 10 to 1000 nM | c1ccc2c(OC[C@H]3CCCN3c3ncnc4[nH]cnc34)ccc(CNCCN3CCOCC3)c2c1 [A60, (2-Morpholin-4-ylethyl)-{4-[(R)-1-(9H-purin-6-yl)-pyrrolidin-2-ylmethoxy]naphthalen-1-yl-methyl}amine] |
| 10 to 1000 nM | O=C1CCCc2c(OC[C@H]3CCCN3c3ncnc4[nH]cnc34)cccc21 [A51] |
| > 10000 nM | F[C@@H]1C[C@H](COc2ccccc2Cl)N(c2ncnc3[nH]cnc23)C1 [A27, 6-[(2R,4R)-2-(2-Chlorophenoxymethyl)-4-fluoro-pyrrolidin-1-yl]-9H-purine] |
| 1000 to 10000 nM | c1cc(OC[C@H]2CCCN2c2ncnc3[nH]cnc23)c2nccc(CN3CCOCC3)c2c1 [A56, 4-Morpholin-4-ylmethyl-8-[(R)-1-(9H-purin-6-yl)-pyrrolidin-2-ylmethoxy]quinoline] |
| > 10000 nM | O=C(Cn1c(C(=O)NCCc2ccc(F)cc2)c(OC[C@H]2CCCN2c2ncnc3[nH]cnc23)c2cc(F)ccc21)NCCc1ccc(F)cc1 [A200, N-[2-(4-Fluorophenyl)ethyl]-5-fluoro-1-{[2-(4-fluorophenyl)ethylcarbamoyl]methyl}-3-[(R)-1-(9H-purin-6-yl)pyrrolidin-2-ylmethoxy]-1H-indole-2-carboxamide] |
| > 10000 nM | CC(=O)Nc1nc2ccc(CNC(=O)Nc3cc(C(F)(F)F)ccc3OCC3CCCN3c3ncnc4[nH]cnc34)cc2[nH]1 (stereo not shown) [A33, N-[6-(3-{2-[1-(9H-Purin-6-yl)pyrrolidin-2-yl-methoxy]-5-trifluoromethylphenyl}ureido-methyl)-1H-benzimidazol-2-yl]acetamide] |
| 10 to 1000 nM | c1cc2c(c(OC[C@H]3CCCN3c3ncnc4[nH]cnc34)c1)CNCC2 [A122, 8-[(R)-1-(9H-Purin-6-yl)pyrrolidin-2-ylmethoxy]-1,2,3,4-tetrahydroisoquinoline] |
| 1000 to 10000 nM | Oc1ccc(OC[C@H]2CCCN2c2ncnc3[nH]c(F)nc23)c2ccccc12 [A147, 4-[(R)-1-(8-Fluoro-9H-purin-6-yl)pyrrolidin-2-yl-methoxy]naphthalen-1-ol] |
| 10 to 1000 nM | c1cc2c(c(OC[C@H]3CCCN3c3ncnc4[nH]cnc34)c1)CCCC2 [A55, 6-[(R)-2-(5,6,7,8-Tetrahydronaphthalen-1-yl-oxymethyl)pyrrolidin-1-yl]-9H-purine] |
| > 10000 nM | Cn1c(C(=O)O)c(OC[C@H]2CCCN2c2ncnc3[nH]cnc23)c2cc(F)ccc21 [A190, 5-Fluoro-1-methyl-3-[(R)-1-(9H-purin-6-yl)-pyrrolidin-2-ylmethoxy]-1H-indole-2-carboxylic acid] |
| 10 to 1000 nM | CCCCOC(=O)c1cc(OC[C@H]2CCCN2c2ncnc3[nH]cnc23)c2cc(F)ccc2n1 [A139, Butyl 6-fluoro-4-[(R)-1-(9H-purin-6-yl)pyrrolidin-2-ylmethoxy]quinoline-2-carboxylate] |
| 1000 to 10000 nM | CN(C)c1ccc2cc(S(=O)(=O)O)cc(OC[C@H]3CCCN3c3ncnc4[nH]cnc34)c2c1 [A107, 6-Dimethylamino-4-[(R)-1-(9H-purin-6-yl)-pyrrolidin-2-ylmethoxy]naphthalene-2-sulfonic acid] |
